Columns and labels:
[1] = (§1) MMV: Anti-babesial activity assay. Parasite pRBCs at 1% parasitemia were cultivated in 100 ul with 96-well plates at 2.5% and 5% hematocrits. The parasites were cultivated in triplicate for 4 days without replacement of the medium for each concentration of the compound.; type: functional, Babesia bovis
[2] = as §1; type: functional, Babesia bigemina
[3] = as §1; type: functional, Babesia equi
[4] = as §1; type: functional, Babesia caballi

Row | Structure (SMILES) | IC50 [1] [µM] | IC50 [2] [µM] | IC50 [3] [µM] | IC50 [4] [µM]
1 | O=C(NC1CCN(Cc2ccccc2)CC1)c1cc2nc(-c3ccc(Cl)s3)cc(C(F)(F)F)n2n1 | 1.42 | 0.065 | 13.9 | 4.13
2 | CCOc1ccc2nc(C)cc(Nc3ccc(N(C)C)cc3)c2c1 | 0.056 | 0.065 | 15.5 | 6.08
3 | CCCc1c(C)nc2ccc(Br)cc2c1O | 16.5 | 11.9 | 13.3 | 0.1
4 | CCCCc1c(C)nc2c(OC)cccc2c1O | 10 | 15.3 | 14 | 5.64
5 | CN(C)c1ccc(N=Cc2ccc(N3CCOCC3)cc2)cc1 | 0.068 | 0.068 | 0.63 | 0.043
6 | c1ccc2c(NCCc3c[nH]c4ccccc34)c3ccccc3nc2c1 | 0.71 | 1.03 | 1.39 | 0.21
7 | COc1cc(C(=O)ON=C(N)Cc2cccc3ccccc23)cc(OC)c1OC | 13.3 | 12.5 | 10.1 | 5.3
8 | COc1cccc(Nc2nc(N)c3ccccc3n2)c1 | 0.12 | 0.057 | 17.2 | 2.95
9 | COc1cccc(Cn2c(Oc3ccccc3)nc3c2c(=O)n(C)c(=O)n3C)c1 | 10.3 | 10 | > 25 | 5.7
10 | CCCc1c(C)nc2ccccc2c1O | 15.3 | 2.96 | 2.4 | 3.7
11 | c1ccc(Cn2c(N=Nc3c(Nc4ccccc4)ccc4ccccc34)nc3ccccc32)cc1 | 2.93 | 3.3 | 0.76 | 2.84
12 | N=c1n(CCN2CCCCC2)c2ccccc2n1CC(=O)c1ccc(Cl)c(Cl)c1 | 0.077 | 0.066 | 15.9 | 3.73
13 | O=C(Nc1ccc(Cl)cc1)N1CCN(c2ccc3nncn3n2)CC1 | 16.3 | 1 | 1.02 | 16.3
14 | CCCn1c(=N)c(C(=O)NC2CCCCC2)cc2c(=O)n3cccc(C)c3nc21 | 5.7 | 13.3 | 2.95 | 6.08
15 | O=C(Nc1cccc(-c2nc3ccccc3[nH]2)c1)c1cccc(NC(=O)c2ccco2)c1 | 3.32 | 6.8 | 3.7 | 5.21
16 | COc1ccc(C(=O)C2CC2c2ccc(Cl)cc2)cc1 (stereo not drawn) | 5.97 | 6.72 | 16.1 | 14.6
17 | O=C(Nc1ccsc1C(=O)NC1CCCCC1)c1ccc(F)cc1 | 0.08 | 0.1 | 5.64 | 17.7
18 | O=C1CC(O)(C(F)(F)C(F)(F)F)Oc2ccccc21 (stereo not drawn) | > 25 | 16.3 | 0.65 | 0.8
19 | CC(=O)NCCc1nc2ccccc2n1Cc1ccc(C(C)C)cc1 | 7.96 | 8.2 | 1 | 10
20 | Cn1c(C(=O)c2cccc3ccccc23)nc2ccccc21 | 3.73 | 12 | 10 | 0.81
21 | CCOc1ccc(-c2nc(NC(=O)c3cccc(S(C)(=O)=O)c3)sc2C)cc1 | 4.48 | 15 | 17.7 | 11.9

Row | Structure (SMILES) | IC50 [1] [µM] | IC50 [2] [µM] | IC50 [3] [µM] | IC50 [4] [µM]
22 | CC(C)CCNCC(O)Cn1c2ccccc2c2ccccc21 (stereo not drawn) | 0.081 | 0.76 | 0.84 | 0.38
23 | CC(Oc1ccc(NC(=O)c2cccs2)cc1)C(=O)c1ccc(Cl)cc1 (stereo not drawn) | 0.1 | 0.081 | 13.3 | 0.29
24 | CCC(c1ccccc1)c1nn2c(-c3cccs3)nnc2s1 (stereo not drawn) | 18.6 | 16.4 | 7.87 | 15.8
25 | COc1ccc2c(c1)C1(Nc3ccccc3-c3nc4ccccc4n31)C(=O)N2 (stereo not drawn) | 16.8 | 14.2 | 3.52 | 3.9
26 | CCOC(=O)C1(Cc2ccccc2)CCN(Cc2cccc(OC)c2O)CC1 | 1.2 | 13.2 | 15.2 | 1.39
27 | COc1ccc(C=C2SC(Nc3ccc(F)cc3)=NC2=O)c(OC)c1 | 0.1 | 0.082 | 4.61 | 0.836
28 | O=C(NCC1Cc2cccc(-c3ccncc3)c2O1)c1csc2c1CCCC2 (stereo not drawn) | 7.18 | 1 | 3.7 | 15.3
29 | COc1ccc(C2C(C(=O)Nc3cccc(OC)c3)c3ccccc3C(=O)N2C2CCCCC2)cc1 (stereo not drawn) | 10 | 0.22 | 12.5 | 1
30 | Cc1sc(NC(=O)c2ccco2)c(C(c2cccnc2)N2CCC(Cc3ccccc3)CC2)c1C (stereo not drawn) | 0.086 | 0.073 | 17.5 | 0.45
31 | O=C(NCc1ccco1)C1CCN(S(=O)(=O)c2ccc(Cl)cc2)CC1 | > 25 | 13 | 7.59 | 25
32 | O=C(Nc1ccc(Cl)cc1C(=O)Nc1ccncc1)c1ccc(Cl)cc1Cl | 10 | 19.7 | 3.61 | 5.64
33 | Oc1ccc2ccccc2c1CNc1nc2ccccc2[nH]1 | 6.81 | 10 | 4.37 | 3.04
34 | O=C(Cc1ccccc1)NC(c1ccc(Cl)cc1)c1c(O)ccc2ccccc12 (stereo not drawn) | 1 | 13.1 | 12.7 | 10
35 | Cc1c(C)n(CC(O)CNC2CCCCC2C)c2ccccc12 (stereo not drawn) | 0.1 | 4.09 | 4.76 | 2.49
36 | O=C1c2ccccc2C2=Nc3ccccc3SC(c3cccc(F)c3)C12 (stereo not drawn) | 0.31 | 5.3 | 14.8 | 0.13
37 | CCOc1ccccc1CN1CCc2nc3cc(C(C)(C)C)nn3c(O)c2C1 | 20.2 | 9.87 | 10.1 | 0.068
38 | Cc1ccc2nc(C)cc(Nc3cccc(C(F)(F)F)c3)c2c1 | 6.31 | 17.5 | 5.5 | 6.72
39 | O=C(NNc1cc(N2CCCC2)nc(N2CCCC2)n1)c1ccccc1 | 4.58 | 13.9 | 5.3 | 5.5
40 | FC(F)(F)c1ccc(Nc2nnnc3ccccc23)cc1 | 25 | 7.18 | 10 | 13.4
41 | CCOC(=O)c1cnc2c(C)cccc2c1Nc1ccc(C(C)=O)cc1 | 19.6 | > 25 | 12.6 | 6.08
42 | COc1ccccc1C(=O)ON=C(N)Cc1cccc2ccccc12 | 22.4 | 19.8 | 7.65 | 6.86

Row | Structure (SMILES) | IC50 [1] [µM] | IC50 [2] [µM] | IC50 [3] [µM] | IC50 [4] [µM]
43 | CCCCCC(=O)N1c2ccccc2N=C2CC(c3ccc(OC)c(OC)c3)CC(O)=C2C1c1ccc(C(F)(F)F)cc1 (stereo not drawn) | > 25 | 16.2 | 21.9 | 14.2
44 | CN1CCN(c2ncnc3c2[nH]c2ccc(Cl)cc23)CC1 | 10 | 8.54 | 8.25 | 6.4
45 | O=C(NC1CCN(Cc2ccccc2)CC1)c1cc(-c2ccncc2)nc2ccc(Cl)cc12 | 3.99 | 7.3 | 0.39 | 0.076
46 | O=C(Nc1cccc(C2=NCCN2)c1)Nc1cccc(C2=NCCN2)c1 [IMIDOCARB] | 0.059 | 0.5 | 0.052 | 0.081
47 | Cc1cc(Nc2cccc(F)c2)nc(NCc2ccccc2)n1 | 10 | 0.093 | 5.06 | 0.1
48 | Nc1ccn([C@@H]2O[C@H](CO)[C@@H](O)[C@H]2O)c(=O)n1 [CYTIDINE] | 7.31 | 19.1 | 14.1 | 4.27
49 | O=C(Nc1ccccc1O)c1ccc(Oc2cccc(C(=O)Nc3ccccc3O)c2)cc1 | 6.45 | 2.86 | 4.19 | 19.4
50 | N=c1n(CCN2CCCCC2)c2ccccc2n1CC(O)c1cccc(Br)c1 (stereo not drawn) | 3.81 | 1 | 1.58 | 4.93
51 | COc1ccc(Br)cc1C1Nc2ccc3ccccc3c2C2=C1C(=O)CC(c1ccccc1)C2 (stereo not drawn) | > 25 | 17.3 | > 25 | 13.1
52 | COc1ccccc1N1C(=N)SC(=Cc2ccc(OCc3ccccc3F)cc2)C1=O | 18.6 | 10 | 16.1 | 17.1
53 | CN1CCN(c2nc(Nc3ccc(O)cc3)nc3ccccc23)CC1 | 16.8 | 10.2 | 15.6 | 9
54 | CC(C)c1ccc(CNCC(O)c2ccccc2)cc1 (stereo not drawn) | 14.3 | > 25 | 10 | 12.4
55 | CC1CCCCN1CCCNC(=O)c1ccc2c(c1)sc1nc(-c3ccc(F)cc3)cn12 (stereo not drawn) | 0.19 | 3.9 | 0.1 | 8.54
56 | Nc1ccc(-c2nc3cc(Cc4ccc5[nH]c(-c6ccc(N)cc6)nc5c4)ccc3[nH]2)cc1 | 0.086 | 9.04 | 0.8 | 1
57 | O=C(CSc1ccc2nnc(-c3cccc(F)c3)n2n1)Nc1ccc2c(c1)OCO2 | 11.9 | 20.2 | 12.9 | 18.2
58 | O=C(c1ccccc1F)N(Cc1ccc(Cl)cc1)c1ccccn1 | 16.5 | 4.19 | 18.2 | 6.06
59 | COc1ccc2c(c1OC)C(=O)N1c3ccccc3N=C(c3ccc(C)cc3)CC21 (stereo not drawn) | 13 | 16.1 | 14.6 | 17.1
60 | O=C(NC(c1ccccc1)c1ccc2cccnc2c1O)c1ccccc1 (stereo not drawn) | 1 | 0.93 | 0.47 | 0.55
61 | Cc1cc(NC(=O)c2cccc(C(F)(F)F)c2)n(-c2nc(-c3ccc4c(c3)OCO4)cs2)n1 | 18 | 8.83 | 12.3 | 0.08
62 | Cc1sc2ncnc(Sc3nc4ccccc4[nH]3)c2c1C | 0.05 | 0.41 | 5.5 | 0.29
